What was measured:
Assay type in all cases: cell-based
[1] = target: T1, M1 muscarinic receptor (Homo sapiens, UniProt P11229); assay: Functional mobilization of intracellular calcium (FLIPR), M1-CHO cells; conditions: for M1 Activity: M1-CHO cells, calcium mobilization (FLIPR)
T1 construct: expressed in transfected cells; host or cells: CHO (M1-CHO)
T1 sequence (P11229 1-460): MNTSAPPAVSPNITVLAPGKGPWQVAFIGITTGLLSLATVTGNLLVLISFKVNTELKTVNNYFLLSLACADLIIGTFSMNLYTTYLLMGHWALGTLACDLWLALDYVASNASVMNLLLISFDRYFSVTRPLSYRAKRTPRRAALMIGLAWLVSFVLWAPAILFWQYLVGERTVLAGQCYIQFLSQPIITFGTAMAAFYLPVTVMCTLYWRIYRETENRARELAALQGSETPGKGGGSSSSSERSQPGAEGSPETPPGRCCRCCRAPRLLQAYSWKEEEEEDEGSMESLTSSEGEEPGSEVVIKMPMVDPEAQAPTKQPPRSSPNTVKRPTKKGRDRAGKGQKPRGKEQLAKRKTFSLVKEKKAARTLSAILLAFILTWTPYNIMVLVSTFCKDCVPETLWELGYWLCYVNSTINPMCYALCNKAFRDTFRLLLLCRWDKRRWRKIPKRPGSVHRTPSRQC
Outline: (§1)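 Calcium mobilisation read by FLIPR over 60 s (ex 488/em 540 nm) in recombinant muscarinic CHO lines loaded with calcium dye plus 1 mM probenecid. Compounds tested as agonists alone, or as inhibitors against EC80 carbachol after 15 min pre-incubation or co-addition; 0.5% DMSO; efficacy scaled to carbachol maximal response.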

[2] = target: T2, M2 muscarinic receptor (Homo sapiens, UniProt P08172); assay: Functional mobilization of intracellular calcium (FLIPR), M2-CHO cells; conditions: for M2 Activity: M2-CHO cells, calcium mobilization (FLIPR)
T2 construct: expressed in transfected cells; host or cells: CHO (M2-CHO)
T2 sequence (P08172 1-466): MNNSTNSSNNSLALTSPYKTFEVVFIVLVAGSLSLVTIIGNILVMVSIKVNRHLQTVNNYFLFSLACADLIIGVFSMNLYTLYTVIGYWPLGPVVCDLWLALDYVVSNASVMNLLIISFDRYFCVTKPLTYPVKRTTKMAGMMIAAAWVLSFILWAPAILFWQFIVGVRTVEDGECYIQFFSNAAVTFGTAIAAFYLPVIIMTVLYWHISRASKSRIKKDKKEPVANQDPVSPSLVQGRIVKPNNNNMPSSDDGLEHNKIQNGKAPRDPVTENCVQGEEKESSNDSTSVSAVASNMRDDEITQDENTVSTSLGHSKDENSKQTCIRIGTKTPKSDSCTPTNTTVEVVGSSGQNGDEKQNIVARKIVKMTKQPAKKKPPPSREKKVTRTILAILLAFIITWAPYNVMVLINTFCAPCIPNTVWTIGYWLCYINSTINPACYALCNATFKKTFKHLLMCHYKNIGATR
Outline: as §1

[3] = target: T3, M3 muscarinic receptor (Homo sapiens, UniProt P20309); assay: Functional mobilization of intracellular calcium (FLIPR), M3-CHO cells; conditions: for M3 Activity: M3-CHO cells, calcium mobilization (FLIPR)
T3 construct: expressed in transfected cells; host or cells: CHO (M3-CHO)
Outline: as §1

[4] = target: T4, M4 muscarinic receptor (Homo sapiens, UniProt P08173); assay: Functional mobilization of intracellular calcium (FLIPR), M4-CHO cells; conditions: for M4 Activity: M4-CHO cells, calcium mobilization (FLIPR)
T4 construct: expressed in transfected cells; host or cells: CHO (M4-CHO)
T4 sequence (P08173 1-479): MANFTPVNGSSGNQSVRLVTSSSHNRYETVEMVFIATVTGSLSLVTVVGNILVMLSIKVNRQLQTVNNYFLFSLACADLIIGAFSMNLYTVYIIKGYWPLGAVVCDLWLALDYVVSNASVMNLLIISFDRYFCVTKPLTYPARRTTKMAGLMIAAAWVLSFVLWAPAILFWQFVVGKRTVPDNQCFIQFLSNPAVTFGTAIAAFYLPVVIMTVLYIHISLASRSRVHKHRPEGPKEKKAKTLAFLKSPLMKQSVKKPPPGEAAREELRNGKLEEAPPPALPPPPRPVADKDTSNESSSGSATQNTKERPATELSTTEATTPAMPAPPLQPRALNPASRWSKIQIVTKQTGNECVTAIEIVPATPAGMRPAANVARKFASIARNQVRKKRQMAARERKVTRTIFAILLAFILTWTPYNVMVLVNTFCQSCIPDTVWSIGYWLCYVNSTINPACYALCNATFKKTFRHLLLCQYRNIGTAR
Outline: as §1

[5] = 100% efficacy = maximum response obtained with the Carbachol control

T3 sequence (P20309 whole entry): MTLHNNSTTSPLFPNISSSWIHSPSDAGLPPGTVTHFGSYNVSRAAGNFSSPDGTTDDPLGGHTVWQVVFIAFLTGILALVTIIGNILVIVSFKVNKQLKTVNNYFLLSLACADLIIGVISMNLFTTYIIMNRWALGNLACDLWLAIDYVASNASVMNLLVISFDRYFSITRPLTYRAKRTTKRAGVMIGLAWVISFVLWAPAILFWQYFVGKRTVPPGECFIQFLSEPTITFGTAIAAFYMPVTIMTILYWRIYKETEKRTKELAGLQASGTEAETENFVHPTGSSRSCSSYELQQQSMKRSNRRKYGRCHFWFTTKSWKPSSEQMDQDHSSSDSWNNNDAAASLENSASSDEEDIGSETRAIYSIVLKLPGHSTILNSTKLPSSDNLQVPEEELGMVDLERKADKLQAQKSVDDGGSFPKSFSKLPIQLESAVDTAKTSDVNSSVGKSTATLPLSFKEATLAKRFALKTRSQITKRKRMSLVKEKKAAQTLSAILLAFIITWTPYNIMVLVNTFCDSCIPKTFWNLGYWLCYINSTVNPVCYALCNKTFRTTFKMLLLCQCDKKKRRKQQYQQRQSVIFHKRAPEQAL

SMILES | Emax [1, 5] | M1 Activity [1] | Emax [2, 5] | M2 Activity [2] | Emax [3, 5] | M3 Activity [3] | Emax [4, 5] | M4 Activity [4] | M1 Efficacy [1, 5] | M2 Efficacy [2, 5] | M3 Efficacy [3, 5] | M4 Efficacy [4, 5]
COc1ccc(Cl)cc1C1CCN(CC2CCOCC2)CC1 [Compound 121] | 25 to 100% | ++ (activity was measured to be from 1.0 μM to 5.0 μM) | < 25% | + (activity was measured to be greater than 5.0 μM) | < 25% | + (activity was measured to be greater than 5.0 μM) | 25 to 100% | +++ (activity was measured to be less than 1.0 μM) |  |  |  | 
CCOC(=O)N1CCC(CN2CCC(F)(c3cc(Cl)ccc3OC)CC2)CC1 [Compound 122] | 25 to 100% | ++ (activity was measured to be from 1.0 μM to 5.0 μM) | 25 to 100% | ++ (activity was measured to be from 1.0 μM to 5.0 μM) | < 25% | + (activity was measured to be greater than 5.0 μM) | 25 to 100% | +++ (activity was measured to be less than 1.0 μM) |  |  |  | 
COc1ccc(Cl)cc1C1(OC)CCN(CC2CCOCC2)CC1 [Compound 123] | 25 to 100% | ++ (activity was measured to be from 1.0 μM to 5.0 μM) | < 25% | + (activity was measured to be greater than 5.0 μM) | < 25% | + (activity was measured to be greater than 5.0 μM) | < 25% | + (activity was measured to be greater than 5.0 μM) |  |  |  | 
COc1ccc(-c2ccncc2)cc1C1CCN([C@@H]2C[C@@H]3CC[C@H]2C3)CC1 [Compound 124, 4-(3-(1-((1S,2R,4R)-bicyclo[2.2.1]heptan-2-yl)piperidin-4-yl)-4-methoxyphenyl) pyridine] | < 25% | + (activity was measured to be greater than 5.0 μM) | < 25% | + (activity was measured to be greater than 5.0 μM) | < 25% | + (activity was measured to be greater than 5.0 μM) | < 25% | + (activity was measured to be greater than 5.0 μM) |  |  |  | 
COc1ccc(-c2ccc(OC(F)(F)F)cc2)cc1C1CCN([C@H]2C[C@H]3CC[C@H]2C3)CC1 [Compound 126] | 25 to 100% | + (activity was measured to be greater than 5.0 μM) | < 25% | + (activity was measured to be greater than 5.0 μM) | < 25% | + (activity was measured to be greater than 5.0 μM) | 25 to 100% | + (activity was measured to be greater than 5.0 μM) |  |  |  | 
O=C(COc1ccccc1C1CCN([C@H]2C[C@H]3CC[C@H]2C3)CC1)c1ccc(N2CCCC2)cc1 [Compound 127] | 25 to 100% | ++ (activity was measured to be from 1.0 μM to 5.0 μM) | 25 to 100% | ++ (activity was measured to be from 1.0 μM to 5.0 μM) | < 25% | + (activity was measured to be greater than 5.0 μM) | 25 to 100% | +++ (activity was measured to be less than 1.0 μM) |  |  |  | 
COc1ccc(-c2ccc(C(=O)N3CCCCC3)cc2)cc1C1CCN([C@H]2C[C@H]3CC[C@H]2C3)CC1 [Compound 128] | < 25% | + (activity was measured to be greater than 5.0 μM) | < 25% | + (activity was measured to be greater than 5.0 μM) | < 25% | + (activity was measured to be greater than 5.0 μM) | < 25% | ++ (activity was measured to be from 1.0 μM to 5.0 μM) |  |  |  | 
COc1ccc(-c2ccc(S(=O)(=O)N3CCCC3)cc2)cc1C1CCN(C2CC3CCC(C3)C2)CC1 (stereo not drawn) [Compound 129] | < 25% | + (activity was measured to be greater than 5.0 μM) | < 25% | + (activity was measured to be greater than 5.0 μM) | < 25% | + (activity was measured to be greater than 5.0 μM) | 25 to 100% | + (activity was measured to be greater than 5.0 μM) |  |  |  | 
COc1ccc(Cl)cc1C1CCN(C2CCC(=NOC(C)(C)C)CC2)CC1 (stereo not drawn) [Compound 130] |  | ++ (activity was measured to be from 1.0 μM to 5.0 μM) |  | + (activity was measured to be greater than 5.0 μM) |  | + (activity was measured to be greater than 5.0 μM) |  | +++ (activity was measured to be less than 1.0 μM) | ++ (efficacy was calculated to be from 100% to 25%) | + (efficacy was calculated to be less than 25%) | + (efficacy was calculated to be less than 25%) | ++ (efficacy was calculated to be from 100% to 25%)
COc1ccccc1C1CC2CCC(C1)N2C1CCCCC1 (stereo not drawn) [Compound 132] | < 25% | ++ (activity was measured to be from 1.0 μM to 5.0 μM) | < 25% | + (activity was measured to be greater than 5.0 μM) | < 25% | + (activity was measured to be greater than 5.0 μM) | < 25% | ++ (activity was measured to be from 1.0 μM to 5.0 μM) |  |  |  | 
Clc1cccc(C2CCN(C3CC4CCC(C4)C3)CC2)c1 (stereo not drawn) [Compound 133] | 25 to 100% | + (activity was measured to be greater than 5.0 μM) | < 25% | + (activity was measured to be greater than 5.0 μM) | < 25% | + (activity was measured to be greater than 5.0 μM) | 25 to 100% | +++ (activity was measured to be less than 1.0 μM) |  |  |  | 
COc1ccc(F)cc1C1(F)CCN(C[C@H]2C[C@H]3C=C[C@H]2C3)CC1 [Compound 134] | 25 to 100% | ++ (activity was measured to be from 1.0 μM to 5.0 μM) | 25 to 100% | ++ (activity was measured to be from 1.0 μM to 5.0 μM) | < 25% | + (activity was measured to be greater than 5.0 μM) | 25 to 100% | +++ (activity was measured to be less than 1.0 μM) |  |  |  | 
Cc1ccc(C)c(C2(O)CCN(C3CC4CCC3C4)CC2)c1 (stereo not drawn) [Compound 135] | 25 to 100% | + (activity was measured to be greater than 5.0 μM) | < 25% | + (activity was measured to be greater than 5.0 μM) |  | + (activity was measured to be greater than 5.0 μM) | < 25% | + (activity was measured to be greater than 5.0 μM) |  |  |  | 
COc1ccccc1C1CCN(C2CC(C)(C)CC(C)(C)C2)CC1 [Compound 138] | < 25% | + (activity was measured to be greater than 5.0 μM) | < 25% | + (activity was measured to be greater than 5.0 μM) | < 25% | + (activity was measured to be greater than 5.0 μM) | < 25% | + (activity was measured to be greater than 5.0 μM) |  |  |  | 

— patent US7880007B2, “Bicyclic substituted phenyl piperidine modulators of muscarinic receptors” (Vertex Pharmaceuticals Incorporated, priority 2004, dated 2011)
